In US8822486B2, “Spiropiperidine compounds” (Eli Lilly and Company, priority 2009, dated 2014):

Target: T1, Gal4 PPARδ (Homo sapiens, UniProt Q03181)
T1 construct: expressed in transfected cells; host or cells: CV1 (African green monkey kidney)
T1 sequence (Q03181 211-439 limits assumed): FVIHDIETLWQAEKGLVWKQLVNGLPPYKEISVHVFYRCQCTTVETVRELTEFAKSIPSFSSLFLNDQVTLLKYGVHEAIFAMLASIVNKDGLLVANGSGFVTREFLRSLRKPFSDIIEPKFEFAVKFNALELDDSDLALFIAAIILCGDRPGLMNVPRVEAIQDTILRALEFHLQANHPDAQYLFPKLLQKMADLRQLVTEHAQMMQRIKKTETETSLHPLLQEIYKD
Assay: Gal4 PPARδ reporter functional assay in CV1 cells
Assay type: cell-based
Conditions: examined up to 10 μM, luciferase reporter, 24 hours
Excerpt: Gal4 PPARα, Gal4 PPARδ, and PPARγ reporter functional assays are also used to monitor the selectivity of exemplified compounds. CV1 cells, which are derived from the renal tissue of an African green monkey, are transfected with various receptor and reporter plasmids using Fugene. For the Gal4 PPARα and PPARδ assays, a reporter plasmid containing five tandem copies of the yeast transcription protein Gal4 response element, cloned upstream of a firefly luciferase gene driven by the major late promoter of adenovirus, is transfected together with a Simian Virus 40 (SV40) driven plasmid constitutively expressing a hybrid protein containing the Gal4 DNA binding domain (DBD), and either the PPARα or PPARδ ligand binding. For the PPARγ assay, plasmids encoding PPARγ and RXRα, both driven by a cytomegalovirus (CMV) promoter are transfected together with a plasmid containing luciferase reporter cDNA driven by the TK promoter and a receptor response element (2×PPRE). Cells are transfected in T225 cm^2 cell culture flasks in DMEM media with 5% charcoal-stripped FBS. […] After 24 hours incubation with compounds, cells are lysed and luciferase activity is determined as a measure of receptor activation by luminescence. […] The maximum percent stimulation is determined versus maximum stimulation obtained with 10 μM of an appropriate PPAR agonist reference compound. […]

CC#C[C@@H](CC(=O)O)c1ccc(OCc2ccc(CN3CCC4(C=Cc5ccccc54)CC3)s2)cc1 [Example 1, (3S)-3-[4-[[5-(Spiro[indene-1,4′-piperidine]-1′-ylmethyl)-2-thienyl]methoxy]phenyl]hex-4-ynoic acid]
functional activation of PPARδ: No functional activation
